Patent US20260001875A1, “AMINOPYRIMIDINYL DERIVATIVES FOR THE TREATMENT OF PARKINSON'S DISEASE” (UNIVERSITY OF DUNDEE, priority 2022, published 2026)

Tests used:
LRRK2^WT = test: Western blot LRRK2 degradation in WT MEFs; format: cell-based, mouse; conditions: WT MEFs and LRRK2^G2019S MEFs
Rab10 pThr73 [1] = test: Rab10 Thr73 dephosphorylation (immunoblot) in WT MEFs; format: cell-based, mouse; conditions: Mus musculus, read-out: pRab10 inhibited in WT MEFs
Summary of the method: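 Wild-type mouse embryonic fibroblasts in 6-well plates were treated with LRRK2 PROTACs, with two biological replicates per condition. Cells were washed in PBS and lysed on ice in buffer containing phosphatase and protease inhibitors plus 1% Triton X-100, then clarified at 15,000 g. Rab10 Thr73 phosphorylation was measured by quantitative immunoblotting of 15 to 20 μg protein on 4-12% Bis-Tris gels.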

Rab10 pThr73 [2] = test: Rab10 Thr73 dephosphorylation (immunoblot) in LRRK2^G2019S MEFs; format: cell-based; conditions: Mus musculus, read-out: pRab10 inhibited in LRRK2^G2019S MEFs
Rab10 pThr73 [3] = test: as above; format: cell-based, mouse; conditions: Mus musculus, 1 μM/4 h treatment; read-out: pRab10 inhibited in LRRK2^G2019S MEFs

Structure (SMILES): CNc1nc(Nc2ccc(C(=O)N3CCN(Cc4ccc(CSC(C)(C)[C@H](NC(=O)C5(F)CC5)C(=O)N5C[C@H](O)C[C@H]5C(=O)NCc5ccc(-c6scnc6C)cc5)cc4)CC3)cc2OC)ncc1Cl [SD100, (2S,4R)-1-((R)-3-((4-((4-(4-((5-chloro-4-(methylamino)pyrimidin-2-yl)amino)-3-methoxybenzoyl)piperazin-1-yl)methyl)benzyl)thio)-2-(1-fluorocyclopropane-1-carboxamido)-3-methylbutanoyl)-4-hydroxy-N-(4-(4-methylthiazol-5-yl)benzyl)pyrrolidine-2-carboxamide]
- LRRK2 degradation (in words) (LRRK2^WT): moderate LRRK2 degradation
- inhibition at 0.033 µM (Rab10 pThr73 [1]; 33 nM/4 h treatment): 0 to 25%
- inhibition at 1 µM (Rab10 pThr73 [1]; 1 μM/4 h treatment): 18 to 90%
- inhibition at 1 µM (Rab10 pThr73 [1]; 1 μM/24 h treatment): 30 to 90%
- inhibition at 0.033 µM (Rab10 pThr73 [2]; 33 nM/4 h treatment): 0 to 60%
- inhibition at 0.033 µM (Rab10 pThr73 [2]; 33 nM/24 h treatment): 0 to 70%
- inhibition at 1 µM (Rab10 pThr73 [3]): 30 to 95%
